According to PMC7707092, “Discovery and characterization of ORM‐11372, a novel inhibitor of the sodium‐calcium exchanger with positive inotropic activity” (British Journal of Pharmacology, 2020):
Where “and” joins values, the source holds several entries; their conditions need not be identical. Equal values may be shown once. Read-outs that look alike come from different tables or passages of the source.

How the values were obtained:
[1] = biological target: T1, rat NCX 1.1 current (I NCX) (Rattus norvegicus, UniProt Q01728); assay: NCX current (I NCX), whole‐cell patch‐clamp in rat ventricular cardiomyocytes; type: cell-based
T1 construct: In rat primary ventricular CMs, the magnitude of outward I NCX; endogenous in cells; host or cells: freshly isolated left ventricular cardiomyocytes of male Wistar rats
Protocol: Rats were anaesthetized with sodium thiopental (0.1 g·kg^−1, i.p.) and injected with heparin sodium (500 IU, i.v.). Hearts were rapidly excised, mounted via the aorta on a Langendorff apparatus, and retrogradely perfused at 37°C with the Krebs–Henseleit solution for 5 min, with Krebs‐Henseleit solution (composition (in mM): 118.5 NaCl, 4 KCI, 2 CaCl2, 1 MgSO4, 1.2 NaH2PO4, 25 NaHCO3, and 11.1 glucose), pH 7.4 when saturated with a mixture of 95% O2 and 5% CO2. The perfusion of the heart was continued using Ca^2+‐free Krebs–Henseleit solution for 10 min, and completed by the addition of 0.05% collagenase (type I), 0.05% hyaluronidase, and 200‐μM CaCl2, for a further 10 min. Subsequently, the left ventricular myocardium was minced and gently agitated. Dissociated cells were stored at room temperature in a solution containing (in mM) 89 KOH, 70 glutamate, 15 taurine, 30 KCI, 10 KH2PO4,10 HEPES, 0.5 MgCl2, 11 glucose, and 0.5 EGTA, and the pH was set to 7.3 using KOH. […] One drop of the cell suspension was placed in a recording chamber and mounted on the stage of an inverted microscope (Olympus IX51, Olympus, Japan), and the individual myocytes were allowed to settle and adhere to the bottom of the chamber for at least 5 min before initiating superfusion.
Manual patch‐clamp recordings of membrane currents (I NCX, L‐type Ca^2+ channel current [I CaL], human cardiac sodium 1.5 current [I Na], and I hERG) were undertaken using either an Axopatch 200B or Axopatch ID amplifier (Molecular Devices, USA), using the whole‐cell configuration. Cells were at least initially (except when recording I Na) perfused with an extracellular solution consisting of (in mM) 143 NaCl, 4 KCl, 1.8 CaCl2, 1.2 MgCl2, 5 glucose, and 10 HEPES (pH 7.4 with NaOH; osmolarity adjusted to 301 ± 3 mOsm). A slightly modified version was used for the rat ventricular CMs (in mM: 144 NaCl, 0.4 NaH2PO4, 4.0 KCl, 1.8 CaCl2, 0.53 MgSO4, 5.5 glucose, and 5.0 HEPES). Patch pipettes were pulled with a P‐2000 or P‐97 micropipette puller (Sutter Instruments, USA) from borosilicate glass capillaries and had resistances of between 2 and 4 MΩ when filled with any of the pipette solutions (see below). The data were filtered at 1 or 2 kHz and digitized at 10 kHz with acquisition and analysis performed by use of pClamp software (Versions 8–10; Molecular Devices; RRID:SCR_011323).
After the establishment of the whole‐cell configuration with hiPSC‐derived CMs or rat ventricular myocytes, the extracellular solution was switched to a K^+‐free bath solution as described earlier (Hobai, Khananshvili, & Levi, 1997; Jost et al., 2013). The solution was composed of (in mM) 135 NaCl, 10 CsCl, 1 CaCl2, 1 MgCl2, 0.2 BaCl2, 0.33 NaH2PO4, 10 TEACI, 10 HEPES, and 10 glucose supplemented with 20‐μM ouabain, 50‐μM lidocaine, and 1‐μM nisoldipine or 2‐μM nitrendipine at pH 7.0 (osmolarity adjusted to 301 ± 3 mOsm). The pipette solution contained (in mM) 140 CsOH, 75 aspartic acid, 20 TEACI, 5 MgATP, 10 HEPES, 20 NaCl, 20 EGTA, and 10 CaCl2 (pH adjusted to 7.2 with CsOH; osmolarity adjusted to 290 ± 2 mOsm). The free intracellular Ca^2+ level in the patch pipette was 140 nM according to Maxchelator (RRID:SCR_000459) software (Bers, Patton, & Nuccitelli, 2010).
The measurement of current in the K^+‐free bath solution using a ramp voltage protocol at 20‐s intervals represented the first control, after which values were measured in the presence of one or more increasing concentrations of ORM‐11372 and finally upon exposure to 10‐mM NiCl2. The voltage protocol consisted of voltage ramps (at a rate of 100 mV·s^−1) with a holding potential of […], which changed to −100 mV and then returned to −40 mV. I NCX was defined as the Ni^2+‐sensitive current value. However, for rat ventricular myocytes, the magnitude of the inward current (forward mode) was particularly small and variable. […]

5‐HT2A receptor = 5‐HT2A receptor (Homo sapiens, UniProt P28223); assay: Radioligand binding selectivity panel (Eurofins Cerep); settings: read-out: inhibition of specific ligand binding
Chain of 5‐HT2A receptor (P28223 whole entry): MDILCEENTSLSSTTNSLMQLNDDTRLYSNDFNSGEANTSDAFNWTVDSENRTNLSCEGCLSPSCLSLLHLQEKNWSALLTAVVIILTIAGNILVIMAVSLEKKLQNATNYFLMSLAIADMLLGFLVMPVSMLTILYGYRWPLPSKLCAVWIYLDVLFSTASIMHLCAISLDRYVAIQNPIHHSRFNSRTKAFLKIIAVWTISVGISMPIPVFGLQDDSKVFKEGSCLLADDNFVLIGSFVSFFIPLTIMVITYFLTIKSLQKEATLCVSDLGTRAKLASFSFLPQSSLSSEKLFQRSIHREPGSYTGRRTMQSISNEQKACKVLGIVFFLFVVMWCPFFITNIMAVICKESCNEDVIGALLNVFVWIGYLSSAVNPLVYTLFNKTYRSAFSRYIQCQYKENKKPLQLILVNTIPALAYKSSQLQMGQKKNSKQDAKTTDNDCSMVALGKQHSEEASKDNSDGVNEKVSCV
Protocol: (§1) Radioligand binding assays were performed at Eurofins Cerep SA (Celle L'Evescault, France), for testing the inhibition capacity of ORM‐11372 (at 10 μM with two replicates), in over 75 targets. These included receptors (e.g., human A1, A2A, and A3 adenosine receptors; α1 and α2 adrenoceptors; human β1–β3 adrenergic receptors; human D1, D2S, D3, D4.4, and D5 dopamine receptors; EGF and VEGF receptors; human M1–M5 muscarinic ACh receptors; human 5‐HT1A, 5‐HT2A, 5‐HT2B, 5‐HT2C, 5‐HT4e, 5‐HT5A, 5‐HT6, and 5‐HT7 receptors), ion channels (5‐HT3, Ca^2+, ATP‐dependent potassium channel [KATP], voltage‐dependent potassium channel [KV], small‐conductance calcium‐dependent potassium channel [SKCa], Na^+, and Cl^−), and transporters (adenosine, noradrenaline, dopamine, and 5‐HT). Follow‐up functional studies (with five concentrations and two replicates) were performed for 5‐HT2A receptors and noradrenaline transporter. Agonism and antagonism at h5‐HT2A receptors was explored in recombinant HEK 293 cells and intracellular calcium changes were detected using fluorimetry. Noradrenaline uptake was measured by carrying out scintillation counting of [^3H]noradrenaline incorporated into rat hypothalamus synaptosomes.

5‐HT2B receptor = 5‐HT2B receptor (Homo sapiens, UniProt P41595); assay: as above; settings: read-out: inhibition of specific ligand binding
Chain of 5‐HT2B receptor (P41595 whole entry): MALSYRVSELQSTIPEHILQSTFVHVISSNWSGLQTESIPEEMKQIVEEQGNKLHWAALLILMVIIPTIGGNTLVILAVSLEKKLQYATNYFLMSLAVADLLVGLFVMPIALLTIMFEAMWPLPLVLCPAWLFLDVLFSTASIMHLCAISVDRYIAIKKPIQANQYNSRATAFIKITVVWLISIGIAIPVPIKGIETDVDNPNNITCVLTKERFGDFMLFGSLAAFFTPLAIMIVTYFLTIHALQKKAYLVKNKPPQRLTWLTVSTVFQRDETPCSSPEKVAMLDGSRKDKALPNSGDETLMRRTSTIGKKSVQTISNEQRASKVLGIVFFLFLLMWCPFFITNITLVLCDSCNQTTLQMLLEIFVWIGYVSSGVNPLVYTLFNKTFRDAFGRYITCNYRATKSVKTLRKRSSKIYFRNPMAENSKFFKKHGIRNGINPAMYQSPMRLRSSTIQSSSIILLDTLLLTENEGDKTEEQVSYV
Protocol: as §1

Na^+/K^+‐ATPase = assay: as above; settings: 10 μM
Protocol: as §1

[2] = biological target: noradrenaline transporter (Homo sapiens, UniProt P23975); assay: as above; settings: read-out: inhibition of specific ligand binding
Chain of noradrenaline transporter (P23975 whole entry): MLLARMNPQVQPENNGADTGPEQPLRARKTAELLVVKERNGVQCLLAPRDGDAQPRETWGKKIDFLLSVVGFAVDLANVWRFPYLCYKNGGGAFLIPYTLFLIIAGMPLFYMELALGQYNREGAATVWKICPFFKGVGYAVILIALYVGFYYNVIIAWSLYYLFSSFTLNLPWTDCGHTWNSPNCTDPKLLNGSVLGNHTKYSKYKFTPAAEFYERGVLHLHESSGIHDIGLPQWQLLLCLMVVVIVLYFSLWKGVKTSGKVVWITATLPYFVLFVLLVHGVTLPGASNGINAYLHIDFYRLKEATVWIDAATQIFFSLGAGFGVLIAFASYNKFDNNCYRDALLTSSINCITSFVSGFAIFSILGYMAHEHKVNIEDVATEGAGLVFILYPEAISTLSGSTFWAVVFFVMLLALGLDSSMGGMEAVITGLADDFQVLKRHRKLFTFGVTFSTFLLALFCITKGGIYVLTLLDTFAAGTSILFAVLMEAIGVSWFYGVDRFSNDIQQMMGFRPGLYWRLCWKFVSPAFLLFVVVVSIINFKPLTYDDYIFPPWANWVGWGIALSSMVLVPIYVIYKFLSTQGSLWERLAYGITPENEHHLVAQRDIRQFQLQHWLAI
Protocol: as §1

ryanodine receptor = assay: as above; settings: 10 μM
Protocol: as §1

In the case of `Nc1cccc(-c2ccc(CNc3ccc(F)cc3)o2)c1` [ORM‐11372], the inhibition at 0.004 µM ([1]; 4 nM, read-out: in vitro NCX 1.1 current inhibition) is reported as 34%, the inhibition at 0.036 µM ([1]; 36 nM, read-out: in vitro NCX 1.1 current inhibition) is reported as 67% and the inhibition at 0.092 µM ([1]; 92 nM, read-out: in vitro NCX 1.1 current inhibition) is reported as 79%. The inhibition at 0.351 µM ([1]; 351 nM, read-out: in vitro NCX inhibition) was 90%, the IC50 ([1]; rat CMs, summarised (discussion), read-out: IC50 rat NCX 1.1 currents) was 0.01 µM and the IC50 ([1]; rat primary ventricular CMs, read-out: IC50 outward I NCX (reverse mode)) was 0.0113 µM and 0.011 µM. For the same compound, the inhibition at 0.01 µM ([1]; rat ventricular CMs, 10 nM, altered conditions to enhance inward current, n=3, read-out: inhibition of inward I NCX (forward mode)) was 53.8 ± 3.9%, the inhibition at 10 µM (5‐HT2A receptor) was > 50% and the inhibition at 10 µM (5‐HT2B receptor) was > 50%. For the same compound, the “inhibition of specific ligand binding” value (Na^+/K^+‐ATPase) was 11%, the inhibition at 10 µM [2] was > 50% and the “inhibition of specific ligand binding” value (ryanodine receptor) was 15%.
